Activity calls are given as the source filed them. The rule behind the calls is not given here.
Key:
Rattus norvegicus [1] = species on record: Rattus norvegicus; assay: Inhibition of C-terminal Hsp90 in rat 50B11 cells assessed as increase in Hsp70 expression at 0.1 to 1 uM after 24 hrs by Western blot analysis; type: cell-based
Rattus norvegicus [2] = species on record: Rattus norvegicus; assay: Neuroprotective activity against H2O2-induced mitochondrial dysfunction in rat 50B11 cells assessed as improvement in mitochondrial biogenesis by measuring increase in maximal respiratory capacity pretreated for 24 hrs followed by H2O2 challenge and measured after 2 hrs; type: functional, cell-based

| SMILES | inhibition (Rattus norvegicus [1]) | Activity (Rattus norvegicus [2]) |
| --- | --- | --- |
| CO[C@@H]1[C@@H](O)[C@@H](O)[C@H](Oc2ccc(CCNC(C)=O)c(-c3cccc(F)c3)c2)OC1(C)C | Active | Dose-dependent effect |
| CO[C@@H]1[C@@H](O)[C@@H](O)[C@H](Oc2ccc(CCNC(C)=O)c3c4cccc(F)c4c(=O)n(C)c23)OC1(C)C | Active | Dose-dependent effect |

Reference: ChEMBL document CHEMBL4229401, “Synthesis and evaluation of a ring-constrained Hsp90 C-terminal inhibitor that exhibits neuroprotective activity” (Bioorg Med Chem Lett, 2018)
